# From article PMC8371461 (Frontiers in Pharmacology, 2021)
# What was measured:
# PIK3CA(M1043I) = molecular target: T1, PIK3CA(M1043I) (Homo sapiens, UniProt P42336, M1043I); assay: kinome scan; format: binding; details: 10 µM
# T1 construct: purchased DiscoverX (KINOMEscan)
# EGFR(L861Q) = molecular target: T2, EGFR(L861Q) (Homo sapiens, UniProt P00533, L861Q); assay: kinome scan; format: binding; details: 10 µM
# T2 construct: purchased DiscoverX (KINOMEscan)
# PIK3CA(I800L) = molecular target: T3, PIK3CA(I800L) (Homo sapiens, UniProt P42336, I800L); assay: kinome scan; format: binding; details: 10 µM
# T3 construct: purchased DiscoverX (KINOMEscan)
# T3 sequence (P42336 whole entry I800L): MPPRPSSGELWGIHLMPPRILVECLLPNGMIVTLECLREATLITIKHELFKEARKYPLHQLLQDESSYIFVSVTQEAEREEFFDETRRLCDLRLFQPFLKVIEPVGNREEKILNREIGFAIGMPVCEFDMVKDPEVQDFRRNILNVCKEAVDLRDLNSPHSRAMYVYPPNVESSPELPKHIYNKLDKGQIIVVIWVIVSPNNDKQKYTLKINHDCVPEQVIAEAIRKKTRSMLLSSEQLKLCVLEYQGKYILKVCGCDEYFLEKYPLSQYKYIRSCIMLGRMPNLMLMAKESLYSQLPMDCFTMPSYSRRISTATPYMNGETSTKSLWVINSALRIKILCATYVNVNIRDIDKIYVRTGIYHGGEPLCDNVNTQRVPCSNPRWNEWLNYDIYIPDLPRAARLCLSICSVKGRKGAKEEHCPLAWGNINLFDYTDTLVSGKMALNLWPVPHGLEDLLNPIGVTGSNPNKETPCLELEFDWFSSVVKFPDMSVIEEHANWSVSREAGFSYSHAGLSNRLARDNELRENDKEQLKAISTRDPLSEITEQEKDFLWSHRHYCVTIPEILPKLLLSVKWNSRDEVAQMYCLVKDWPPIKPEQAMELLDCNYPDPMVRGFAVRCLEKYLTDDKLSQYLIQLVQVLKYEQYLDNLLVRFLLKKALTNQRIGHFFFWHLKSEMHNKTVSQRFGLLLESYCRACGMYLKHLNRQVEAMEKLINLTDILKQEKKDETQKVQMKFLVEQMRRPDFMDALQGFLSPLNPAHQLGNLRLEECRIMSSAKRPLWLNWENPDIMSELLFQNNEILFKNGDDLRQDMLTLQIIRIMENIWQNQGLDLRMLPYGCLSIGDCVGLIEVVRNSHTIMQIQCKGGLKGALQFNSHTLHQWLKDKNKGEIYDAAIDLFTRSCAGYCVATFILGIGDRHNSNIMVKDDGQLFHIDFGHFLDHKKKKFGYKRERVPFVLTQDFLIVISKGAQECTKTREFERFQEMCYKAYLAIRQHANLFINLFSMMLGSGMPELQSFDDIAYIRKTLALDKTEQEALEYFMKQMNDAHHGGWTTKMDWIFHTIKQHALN
# ULK2 = molecular target: T4, ULK2 (Homo sapiens, UniProt Q8IYT8); assay: kinome scan; format: binding; details: 10 µM
# T4 construct: purchased DiscoverX (KINOMEscan)
# MYO3B = molecular target: T5, MYO3B (Homo sapiens, UniProt Q8WXR4); assay: kinome scan; format: binding; details: 10 µM
# T5 construct: purchased DiscoverX (KINOMEscan)
# T5 sequence (Q8WXR4 whole entry): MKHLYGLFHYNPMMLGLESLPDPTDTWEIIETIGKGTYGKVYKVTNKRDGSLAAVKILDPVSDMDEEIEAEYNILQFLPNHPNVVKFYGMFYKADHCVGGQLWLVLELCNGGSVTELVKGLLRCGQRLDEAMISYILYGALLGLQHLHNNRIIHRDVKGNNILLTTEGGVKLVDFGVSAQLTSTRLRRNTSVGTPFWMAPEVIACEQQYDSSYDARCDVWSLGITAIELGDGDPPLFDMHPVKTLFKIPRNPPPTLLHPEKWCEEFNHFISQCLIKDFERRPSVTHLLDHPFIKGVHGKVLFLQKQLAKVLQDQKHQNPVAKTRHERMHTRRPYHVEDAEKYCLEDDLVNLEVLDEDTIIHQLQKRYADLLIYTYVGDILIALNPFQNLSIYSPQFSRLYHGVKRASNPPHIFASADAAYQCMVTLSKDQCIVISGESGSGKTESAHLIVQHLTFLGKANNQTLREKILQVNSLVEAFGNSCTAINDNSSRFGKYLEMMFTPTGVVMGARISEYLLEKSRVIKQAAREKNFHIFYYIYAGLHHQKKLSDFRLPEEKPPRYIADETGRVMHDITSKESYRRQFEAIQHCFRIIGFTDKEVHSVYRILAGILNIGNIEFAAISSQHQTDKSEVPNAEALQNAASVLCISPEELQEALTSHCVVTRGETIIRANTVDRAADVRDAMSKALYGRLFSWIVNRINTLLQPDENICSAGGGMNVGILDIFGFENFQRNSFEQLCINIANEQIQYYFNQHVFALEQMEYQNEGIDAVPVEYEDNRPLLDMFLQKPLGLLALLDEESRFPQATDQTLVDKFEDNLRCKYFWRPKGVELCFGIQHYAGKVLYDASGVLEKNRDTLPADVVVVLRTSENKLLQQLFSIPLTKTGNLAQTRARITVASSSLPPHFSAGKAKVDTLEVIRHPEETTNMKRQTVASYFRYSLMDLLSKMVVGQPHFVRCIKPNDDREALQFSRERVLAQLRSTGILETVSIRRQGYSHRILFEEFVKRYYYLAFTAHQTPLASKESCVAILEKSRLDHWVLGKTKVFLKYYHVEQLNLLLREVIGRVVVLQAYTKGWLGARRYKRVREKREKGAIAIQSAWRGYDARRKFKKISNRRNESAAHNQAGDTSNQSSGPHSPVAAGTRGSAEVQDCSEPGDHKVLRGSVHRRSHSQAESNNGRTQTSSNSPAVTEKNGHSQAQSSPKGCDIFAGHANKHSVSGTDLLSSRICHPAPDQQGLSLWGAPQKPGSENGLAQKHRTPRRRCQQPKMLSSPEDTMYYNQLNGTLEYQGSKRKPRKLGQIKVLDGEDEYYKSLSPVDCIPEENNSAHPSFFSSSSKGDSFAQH
# IKK-beta = molecular target: T6, IKK-beta (Homo sapiens, UniProt O14920); assay: kinome scan; format: binding; details: 10 µM
# T6 construct: purchased DiscoverX (KINOMEscan)
# DAPK2 = molecular target: T7, DAPK2 (Homo sapiens, UniProt Q9UIK4); assay: kinome scan; format: binding; details: 10 µM
# T7 construct: purchased DiscoverX (KINOMEscan)
# ADCK3 = molecular target: T8, ADCK3 (Homo sapiens, UniProt Q8NI60); assay: kinome scan; format: binding; details: 10 µM
# T8 construct: purchased DiscoverX (KINOMEscan)
# PIK3CA(H1047L) = molecular target: T9, PIK3CA(H1047L) (Homo sapiens, UniProt P42336, H1047L); assay: kinome scan; format: binding; details: 10 µM
# T9 construct: purchased DiscoverX (KINOMEscan)
# T9 sequence (P42336 whole entry H1047L): as the sequence (P42336 whole entry I800L) above, with L800I, H1047L counted along it
# MAP4K2 = molecular target: T10, MAP4K2 (Homo sapiens, UniProt Q12851); assay: kinome scan; format: binding; details: 10 µM
# T10 construct: purchased DiscoverX (KINOMEscan)
# MAP3K2 = molecular target: T11, MAP3K2 (Homo sapiens, UniProt Q9Y2U5); assay: kinome scan; format: binding; details: 10 µM
# T11 construct: purchased DiscoverX (KINOMEscan)
# PAK2 = molecular target: T12, PAK2 (Homo sapiens, UniProt Q13177); assay: kinome scan; format: binding; details: 10 µM
# T12 construct: purchased DiscoverX (KINOMEscan)
# LYN = molecular target: T13, LYN (Homo sapiens, UniProt P07948); assay: kinome scan; format: binding; details: 10 µM
# T13 construct: purchased DiscoverX (KINOMEscan)
# FES = molecular target: T14, FES (Homo sapiens, UniProt P07332); assay: kinome scan; format: binding; details: 10 µM
# T14 construct: purchased DiscoverX (KINOMEscan)
# ERBB2 = molecular target: T15, ERBB2 (Homo sapiens, UniProt P04626); assay: kinome scan; format: binding; details: 10 µM
# T15 construct: purchased DiscoverX (KINOMEscan)
# PIM2 = molecular target: T16, PIM2 (Homo sapiens, UniProt Q9P1W9); assay: kinome scan; format: binding; details: 10 µM
# T16 construct: purchased DiscoverX (KINOMEscan)
# EPHA2 = molecular target: T17, EPHA2 (Homo sapiens, UniProt P29317); assay: kinome scan; format: binding; details: 10 µM
# T17 construct: purchased DiscoverX (KINOMEscan)
# T17 sequence (P29317 24-976): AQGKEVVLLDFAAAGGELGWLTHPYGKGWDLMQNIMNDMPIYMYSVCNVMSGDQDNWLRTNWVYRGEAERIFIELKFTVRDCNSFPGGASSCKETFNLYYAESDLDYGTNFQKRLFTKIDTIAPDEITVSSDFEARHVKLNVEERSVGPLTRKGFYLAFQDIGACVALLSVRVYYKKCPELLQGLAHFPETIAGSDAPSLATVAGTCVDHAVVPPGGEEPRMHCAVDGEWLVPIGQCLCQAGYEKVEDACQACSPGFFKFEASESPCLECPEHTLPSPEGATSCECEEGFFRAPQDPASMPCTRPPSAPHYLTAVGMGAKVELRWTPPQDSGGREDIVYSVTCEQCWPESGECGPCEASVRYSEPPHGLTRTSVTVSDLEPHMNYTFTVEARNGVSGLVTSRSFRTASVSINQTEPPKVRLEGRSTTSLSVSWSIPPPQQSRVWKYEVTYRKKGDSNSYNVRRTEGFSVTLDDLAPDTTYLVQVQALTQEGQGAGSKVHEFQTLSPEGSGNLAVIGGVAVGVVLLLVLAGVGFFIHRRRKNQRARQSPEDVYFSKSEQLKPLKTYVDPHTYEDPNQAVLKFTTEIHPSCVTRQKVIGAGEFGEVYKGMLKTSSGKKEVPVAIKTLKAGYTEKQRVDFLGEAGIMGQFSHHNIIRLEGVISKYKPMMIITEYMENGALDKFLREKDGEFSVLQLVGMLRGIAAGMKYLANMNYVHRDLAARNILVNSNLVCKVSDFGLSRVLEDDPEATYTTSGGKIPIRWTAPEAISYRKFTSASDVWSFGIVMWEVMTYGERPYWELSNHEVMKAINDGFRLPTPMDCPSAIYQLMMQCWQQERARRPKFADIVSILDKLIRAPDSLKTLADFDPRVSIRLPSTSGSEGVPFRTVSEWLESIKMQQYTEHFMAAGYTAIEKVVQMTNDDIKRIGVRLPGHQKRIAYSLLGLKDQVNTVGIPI
# ERK3 = molecular target: T18, ERK3 (Homo sapiens, UniProt Q16659); assay: kinome scan; format: binding; details: 10 µM
# T18 construct: purchased DiscoverX (KINOMEscan)
# PLK3 = molecular target: T19, PLK3 (Homo sapiens, UniProt Q9H4B4); assay: kinome scan; format: binding; details: 10 µM
# T19 construct: purchased DiscoverX (KINOMEscan)
# PFPK5(P.falciparum) = molecular target: T20, PFPK5(P.falciparum) (Plasmodium falciparum, UniProt P61075); assay: kinome scan; format: binding; details: 10 µM
# T20 construct: purchased DiscoverX (KINOMEscan)
# Method: (§1) The kinome scan analysis was performed using the DiscoverX platform (www.discoverx.com). Briefly, T7 kinase-tagged phage strains are grown in parallel in 24-well or 96-well blocks in a BL21-derived E. coli host for 90 min until lysis. Lysates are centrifuged at 6,000 x g and filtered with a 0.2 µm filter to remove cell debris. Streptavidin-coated magnetic beads are treated with biotinylated kinase ligands for 30 min at room temperature to generate the affinity resin. Bound beads are blocked with excess biotin and washed with blocking buffer (SeaBlock (Pierce), 1% BSA, 0.05% Tween 20, and 1 mM DTT) to remove unbound ligand and reduce nonspecific phage binding. […] The final concentration of test compound is 10 µM. Assay plates are incubated at room temperature with shaking for 1 h. Affinity beads are treated four times with washing buffer (1X PBS, 0.05% Tween 20, and 1 mM DTT) to remove unbound phage. […] Q RT PCR is used to measure the amount of phage in each eluate (which is proportional to the amount of kinase bound). Data is presented as the percentage of kinase bound by 10 µM of the ligand compared to the DMSO only as a control.
# (§2) Hits are identified by an ultra-sensitive quantitative PCR detecting the specific DNA tag linked to each kinase (Supplementary Figure S2). The drug is used at a concentration of 10 µM and results are expressed as the percentage of signal (kinase PCR detection) with respect to DMSO control conditions. Thirteen hits were identified, with a signal reduction ranging from 0 to 27% (Table 3). Full raw data are presented in Supplementary Table S4. Interactions between 0 and 20% of reduction were considered to be the most significant ones. […] A sub-micromolar affinity (Kd<1 µM) was only seen with two PIKs (PIP4K2C, PI4KB) and GAK (Table 4). Inhibitions curves from these compounds are shown in Supplementary Figure S3.
# CDC2L5 = molecular target: T21, CDC2L5 (Homo sapiens, UniProt Q14004); assay: kinome scan; format: binding; details: 10 µM
# T21 construct: purchased DiscoverX (KINOMEscan)
# T21 sequence (Q14004 whole entry): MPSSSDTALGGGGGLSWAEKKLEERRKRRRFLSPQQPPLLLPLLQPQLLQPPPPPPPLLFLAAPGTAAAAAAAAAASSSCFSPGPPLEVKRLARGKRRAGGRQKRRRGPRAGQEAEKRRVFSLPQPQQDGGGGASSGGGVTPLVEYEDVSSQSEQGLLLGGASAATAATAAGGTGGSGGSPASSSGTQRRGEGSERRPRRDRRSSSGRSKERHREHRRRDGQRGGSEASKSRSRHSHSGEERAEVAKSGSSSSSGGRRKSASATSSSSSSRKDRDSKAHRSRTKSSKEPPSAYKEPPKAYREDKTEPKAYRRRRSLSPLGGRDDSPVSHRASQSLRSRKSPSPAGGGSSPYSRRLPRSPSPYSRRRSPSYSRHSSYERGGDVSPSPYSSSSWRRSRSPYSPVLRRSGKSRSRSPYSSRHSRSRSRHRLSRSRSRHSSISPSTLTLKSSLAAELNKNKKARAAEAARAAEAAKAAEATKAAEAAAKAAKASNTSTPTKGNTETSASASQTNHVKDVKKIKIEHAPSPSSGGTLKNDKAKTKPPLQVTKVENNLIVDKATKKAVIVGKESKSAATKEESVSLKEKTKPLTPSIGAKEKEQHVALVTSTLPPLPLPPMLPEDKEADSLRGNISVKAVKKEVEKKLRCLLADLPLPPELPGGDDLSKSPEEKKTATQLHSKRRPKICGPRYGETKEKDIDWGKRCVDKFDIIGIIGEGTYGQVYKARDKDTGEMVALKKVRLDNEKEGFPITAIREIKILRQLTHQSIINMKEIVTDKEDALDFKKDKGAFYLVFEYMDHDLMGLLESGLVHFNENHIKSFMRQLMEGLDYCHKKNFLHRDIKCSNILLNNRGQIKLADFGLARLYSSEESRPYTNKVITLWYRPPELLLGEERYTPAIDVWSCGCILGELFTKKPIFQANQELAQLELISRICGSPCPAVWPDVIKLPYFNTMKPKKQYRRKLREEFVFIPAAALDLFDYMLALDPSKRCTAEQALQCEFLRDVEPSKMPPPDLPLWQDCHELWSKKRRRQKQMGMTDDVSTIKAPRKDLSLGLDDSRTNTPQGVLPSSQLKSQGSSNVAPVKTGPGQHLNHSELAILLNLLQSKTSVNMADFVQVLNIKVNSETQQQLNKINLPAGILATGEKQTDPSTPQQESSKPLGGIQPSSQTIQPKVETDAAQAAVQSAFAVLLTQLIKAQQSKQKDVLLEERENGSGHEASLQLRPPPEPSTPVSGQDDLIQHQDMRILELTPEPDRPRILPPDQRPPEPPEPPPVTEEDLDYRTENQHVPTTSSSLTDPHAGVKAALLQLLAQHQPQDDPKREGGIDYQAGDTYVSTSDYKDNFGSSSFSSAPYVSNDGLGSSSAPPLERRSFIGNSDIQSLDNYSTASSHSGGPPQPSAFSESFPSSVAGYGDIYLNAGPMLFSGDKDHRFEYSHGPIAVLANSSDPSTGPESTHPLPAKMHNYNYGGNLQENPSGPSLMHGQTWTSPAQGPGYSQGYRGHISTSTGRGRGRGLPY
# Method: as §1, §2
# PFCDPK1(P.falciparum) = molecular target: T22, PFCDPK1(P.falciparum) (Plasmodium falciparum, UniProt P62344); assay: kinome scan; format: binding; details: 10 µM
# T22 construct: purchased DiscoverX (KINOMEscan)
# Method: as §1, §2
# PRP4 = molecular target: T23, PRP4 (Homo sapiens, UniProt Q13523); assay: kinome scan; format: binding; details: 10 µM
# T23 construct: purchased DiscoverX (KINOMEscan)
# Method: as §1, §2
# MTOR = molecular target: T24, MTOR (Homo sapiens, UniProt P42345); assay: kinome scan; format: binding; details: 10 µM
# T24 construct: purchased DiscoverX (KINOMEscan)
# [1] = tested on: Estrogen receptor alpha signaling; set-up: method as in CHEMBL1794542; details: reported activity, data mining; ref CHEMBL1794542; cited from earlier work
# EPHB2 = molecular target: T25, EPHB2 (Homo sapiens, UniProt P29323); assay: kinome scan; format: binding; details: 10 µM
# T25 construct: purchased DiscoverX (KINOMEscan)
# LZK = molecular target: T26, LZK (Homo sapiens, UniProt O43283); assay: kinome scan; format: binding; details: 10 µM
# T26 construct: purchased DiscoverX (KINOMEscan)
# [2] = molecular target: T27, RSK3(Kin.Dom.2-C-terminal) (Homo sapiens, UniProt Q15349); assay: kinome scan; format: binding; details: 10 µM
# T27 construct: RSK3(Kin.Dom.2-C-terminal); purchased DiscoverX (KINOMEscan)
# MEK5 = molecular target: T28, MEK5 (Homo sapiens, UniProt Q13163); assay: kinome scan; format: binding; details: 10 µM
# T28 construct: purchased DiscoverX (KINOMEscan)
# ERK1 = molecular target: T29, ERK1 (Homo sapiens, UniProt P27361); assay: kinome scan; format: binding; details: 10 µM
# T29 construct: purchased DiscoverX (KINOMEscan)
# [3] = molecular target: T30, RPS6KA5(Kin.Dom.1-N-terminal) (Homo sapiens, UniProt O75582); assay: kinome scan; format: binding; details: 10 µM
# T30 construct: RPS6KA5(Kin.Dom.1-N-terminal); purchased DiscoverX (KINOMEscan)
# T1 sequence (P42336 whole entry M1043I): as the sequence (P42336 whole entry I800L) above, with L800I, M1043I counted along it
smiles,measurement,setting,value
"Nc1ccc(N=Nc2ccccc2)c(N)n1 [phenazopyridine, 2,6-diamino-3-(phenylazo)pyridine]",kinase inhibition,PIK3CA(M1043I),100
same,kinase inhibition,EGFR(L861Q),95
same,kinase inhibition,PIK3CA(I800L),88
same,kinase inhibition,ULK2,96
same,kinase inhibition,MYO3B,95
same,kinase inhibition,IKK-beta,89
same,kinase inhibition,DAPK2,100
same,kinase inhibition,ADCK3,91
same,kinase inhibition,PIK3CA(H1047L),80
same,kinase inhibition,MAP4K2,65
same,kinase inhibition,MAP3K2,85
same,kinase inhibition,PAK2,97
same,kinase inhibition,LYN,82
same,kinase inhibition,FES,100
same,kinase inhibition,ERBB2,64
same,kinase inhibition,PIM2,100
same,kinase inhibition,EPHA2,95
same,kinase inhibition,ERK3,95
same,remaining binding (% of control),PLK3,98
same,kinase inhibition,PFPK5(P.falciparum),89
same,kinase inhibition,CDC2L5,100
same,kinase inhibition,PFCDPK1(P.falciparum),100
same,"kinase bound, % of DMSO control",PRP4,100
same,kinase inhibition,MTOR,74
same,Concentration,[1],3.1 µM
same,kinase inhibition,EPHB2,70
same,kinase inhibition,LZK,100
same,kinase inhibition,[2],100
same,kinase inhibition,MEK5,90
same,kinase inhibition,ERK1,95
same,kinase inhibition,[3],100
